Literature values as cited in patent publication US20120276003A1, “COMPOUND CONTAINING AN OXYGEN-15, PREPARATION AND USE THEREOF, AND COMPOSITION COMPRISING THEREOF” (Beijing Top Grade Medical Equipment Co., Ltd., priority 2011, published 2012).

Details: perfusion imaging agent; stated 'academically'

- one-time through uptake rate: ~100%
SMILES: [15OH2] [^15O-water]
